From ChEMBL document CHEMBL1268903, “Biologically active biotin derivatives of schweinfurthin F” (Bioorg Med Chem Lett, 2010) come the findings set out here.

The nature of test [1]: Cytotoxicity against human NCI60 cells. Type of test: functional.
The test system of test [2] is A549. The test is described as follows: Cytotoxicity against human A549 cells. The class given is functional, cell-based.
The test system of test [3] is SF-295. The test is described as follows: Cytotoxicity against human SF295 cells. The class given is functional, cell-based.

Where only a bound is given, the exact number is not on record here.

Consider `COc1cc(/C=C/c2cc(O)c(CC=C(C)C)c(O)c2)cc2c1O[C@]1(C)CC[C@@H](O)C(C)(C)[C@H]1C2` [SCHWEINFURTHIN F], for which the GI50 (as a rule, the concentration at which growth is held to half of that of the control) in test [1] came out at 1000 nM. Still for that read-out and setting: to `CC(C)=CCC/C(C)=C/Cc1c(O)cc(/C=C/c2cc(O)c3c(c2)C[C@@H]2C(C)(C)[C@H](O)[C@H](O)C[C@@]2(C)O3)cc1O` [SCHWEINFURTHIN A] belongs 1000 nM.

Turning to `COCOc1cc(/C=C/c2cc3c(c(OC)c2)O[C@]2(C)CC[C@@H](O)C(C)(C)[C@H]2C3)cc(OC)c1C/C=C(\C)C/C=C/C(C)CNC(=O)CCCC[C@H]1SC[C@H]2NC(=O)N[C@H]21` (stereo partly drawn), the EC50 (in general, the concentration needed to bring the measured effect to its halfway point) turned out to be 5 µM in test [2] and 1100 nM in test [3]. The like results for `COCOc1cc(/C=C/c2cc3c(c(OC)c2)O[C@]2(C)CC[C@@H](O)C(C)(C)[C@H]2C3)cc(OC)c1C/C=C(\C)C/C=C/C(C)COC(=O)CCCC[C@H]1SC[C@H]2NC(=O)N[C@H]21` (stereo partly drawn) were, in that order, > 10 µM and 2700 nM. In test [1], `COc1cc(/C=C/c2cc(O)c(C/C=C(\C)CCC=C(C)C)c(O)c2)cc2c1O[C@]1(C)CC[C@@H](O)C(C)(C)[C@H]1C2` [3-DEOXYSCHWEINFURTHIN B] had a GI50 of 1000 nM. Also, the EC50 in test [2] was determined as 4.9 µM.
